Results: patent US7816535B2, “Vinyl-phenyl derivatives for inflammation and immune-related uses” (Synta Pharmaceuticals Corp., priority 2006, dated 2010)

System: IL-2 production
Test: Inhibition of IL-2 production in PHA-activated Jurkat cells (ELISA)
Assay type: cell-based
Settings: Homo sapiens, PHA 2.5 μg/mL, IL-2 ELISA
Procedure: Jurkat cells were placed in a 96 well plate (0.5 million cells per well in 1% FBS medium) then a test compound of this invention was added at different concentrations. After 10 minutes, the cells were activated with PHA (final concentration 2.5 μg/mL) and incubated for 20 hours at 37° C. under CO2. The final volume was 200 μL. Following incubation, the cells were centrifuged and the supernatants collected and stored at −70° C. prior to assaying for IL-2 production. A commercial ELISA kit (IL-2 Eli-pair, Diaclone Research, Besancon, France) was used to detect production of IL-2, from which dose response curves were obtained. The IC50 value was calculated as the concentration at which 50% of maximum IL-2 production after stimulation was inhibited versus a non-stimulation control.

| Structure (SMILES) | IC50 (Jurkat, 20 h) [nM] | IC50 (20 hours) [nM] |
| --- | --- | --- |
| CC1=C(c2ccc(NC(=O)c3ccncc3F)cc2)CCCC1 [Compound 1, 3-Fluoro-N-[4-(2-methyl-cyclohex-1-enyl)-phenyl]-isonicotinamide] | 84 |  |
| C=C(C)[C@@H]1CCC(C)=C(c2ccc(NC(=O)c3ccncc3C)cc2)C1 [Compound 2, 3-Methyl-N-[4-(2-methyl-5(R)-isopropenyl-cyclohex-1-enyl)-phenyl]-isonicotinamide] | 11 |  |
| C=C(C)[C@H]1CCC(C)=C(c2ccc(NC(=O)c3ccncc3C)cc2)C1 [Compound 3, 3-Methyl-N-[4-(2-methyl-5(S)-isopropenyl-cyclohex-1-enyl)-phenyl]-isonicotinamide] | 9 |  |
| C=C(C)[C@@H]1CCC(C)=C(c2ccc(NC(=O)c3ccncc3F)cc2)C1 [Compound 4, 3-Fluoro-N-[4-(2-methyl-5(R)-isopropenyl-cyclohex-1-enyl)-phenyl]-isonicotinamide] | 7 |  |
| C=C(C)[C@H]1CCC(C)=C(c2ccc(NC(=O)c3ccncc3F)nc2)C1 [Compound 5] | 13.9 |  |
| CC(=O)[C@@H]1CCC(C)=C(c2ccc(NC(=O)c3ccncc3C)cc2)C1 [Compound 6, 3-Methyl-N-[4-(2-methyl-5(R)-acetyl-cyclohex-1-enyl)-phenyl]-isonicotinamide] | 68 |  |
| CCOC(=O)N1C=C(c2ccc(NC(=O)c3c(F)cccc3F)cc2)C(C)CC1 (stereo not drawn) [Compound 8, 5-[4-(2,6-difluoro-benzoylamino)-phenyl]-4-methyl-2,4-dihydro-2H-pyridine-1-carboxylic acid ethyl ester] | 95 |  |
| CC1=C(c2ccc(NC(=O)c3ccncc3C)cc2)C[C@@H]([C@@](C)(O)CO)CC1 [Compound 9, N-(4-((S)-5-((R)-1,2-dihydroxypropan-2-yl)-2-methylcyclohex-1-enyl)phenyl)-3-methylisonicotinamide] | 748 |  |
| CC1=C(c2ccc(NC(=O)c3c(F)cccc3F)cc2)CN(Cc2ccccc2)CC1 [Compound 11, N-(4-(1-benzyl-4-methyl-1,2,5,6-tetrahydropyridin-3-yl)phenyl)-2,6-difluorobenzamide] | > 1000 |  |
| CCOC(=O)N1CCC(C)=C(c2ccc(NC(=O)c3c(F)cccc3F)cc2)C1 [Compound 12, Ethyl 3-(4-(2,6-difluorobenzamido)phenyl)-4-methyl-5,6-dihydropyridine-1(2H)-carboxylate] | 23 |  |
| CC(C)=C(C)c1ccc(NC(=O)c2ccncc2F)cc1 [Compound 13, 3-Fluoro-N-(4-(3-methylbut-2-en-2-yl)phenyl)-isonicotinamide] | 382 |  |
| CC(C)=C(c1ccccc1)c1ccc(NC(=O)c2ccncc2C)cc1 [Compound 14, 3-Methyl-N-(4-(2-methyl-1-phenylprop-1-enyl)phenyl)-isonicotinamide] | 159 |  |
| CC1=C(c2ccc(NC(=O)c3c(F)cccc3F)cc2)CCN(C)C1 [Compound 15, N-(4-(1,5-Dimethyl-1,2,3,6-tetrahydropyridin-4-yl)phenyl)-2,6-difluorobenzamide] |  | > 1000 |
| CC1=C(c2ccc(NC(=O)c3c(F)cccc3F)cc2)CCNC1 [Compound 17, 2,6-Difluoro-N-(4-(5-methyl-1,2,3,6-tetrahydropyridin-4-yl)phenyl)benzamide] |  | > 1000 |
| O=C(Nc1ccc(C2=CCCCC2)cc1)c1ccncc1F [Compound 18, N-(4-Cyclohexenylphenyl)-3-fluoroisonicotinamide] | > 1000 |  |
| CC1=C(c2ccc(NC(=O)c3c(F)cccc3F)cc2)CCN(Cc2ccccc2)C1 [Compound 19, N-(4-(1-benzyl-5-methyl-1,2,3,6-tetrahydropyridin-4-yl)phenyl)-2,6-difluorobenzamide] |  | 513 |
| O=C(Nc1ccc(C2=C(c3cnco3)CCCC2)cc1)c1ccncc1F [Compound 24, N-[4-(2-oxazol-5-yl-cyclohexen-1-yl)-phenyl]-3-fluoroisonicotinamide] | 68 |  |
| CC1=C(c2ccc(NC(=O)c3ncncc3C)cc2)CCCC1 [Compound 26, 5-Methyl-pyrimidine-4-carboxylic acid [4-(2-methyl-cyclohex-1-enyl)-phenyl]-amide] | 165 |  |
| CC1=C(c2ccc(NC(=O)c3cncnc3C)cc2)CCCC1 [Compound 27, 4-Methyl-pyrimidine-5-carboxylic acid [4-(2-methyl-cyclohex-1-enyl)-phenyl]-amide] | 38.9 |  |
| CC1=C(c2ccc(NC(=O)c3scnc3Cl)cc2)CCCC1 [Compound 28, 4-Chloro-thiazole-5-carboxylic acid [4-(2-methyl-cyclohex-1-enyl)-phenyl]-amide] | 143 |  |

Continued, in another order:

| IC50 (Jurkat, 20 h) [nM] | Structure (SMILES) | IC50 (20 hours) [nM] |
| --- | --- | --- |
| > 1000 | CC1=C(c2ccc(NC(=O)c3c(F)cccc3F)cc2)CN(C)CC1 [Compound 10, N-(4-(1,4-dimethyl-1,2,5,6-tetrahydropyridin-3-yl)phenyl)-2,6-difluorobenzamide] |  |
| 24.6 | CCOC(=O)N1CCC(c2ccc(NC(=O)c3c(F)cccc3F)cc2)=C(C)C1 [Compound 16, Ethyl 4-(4-(2,6-difluorobenzamido)phenyl)-3-methyl-5,6-dihydropyridine-1(2H)-carboxylate] |  |
| 23.2 | O=C(Nc1ccc(C2=C(Cl)CCCC2)cc1)c1c(F)cccc1F [Compound 21, N-[4-(2-chloro-cyclohex-1-enyl)-phenyl]-2,6-difluoro-benzamide] |  |
| 721 | O=C(Nc1ccc(C2=C(CO)CCCC2)cc1)c1c(F)cccc1F [Compound 22, N-[4-(2-hydroxymethyl-cyclohex-1-enyl)-phenyl]-2,6-difluoro-benzamide] |  |
| 7.4 | O=C(Nc1ccc(C2=C(c3cnco3)CCCC2)cc1)c1c(F)cccc1F [Compound 23, N-[4-(2-oxazol-5-yl-cyclohex-1-enyl)-phenyl]-2,6-difluoro-benzamide] |  |
| 7.2 | CC1=C(c2ccc(NC(=O)c3c(F)cccc3F)cc2)CCCC1 [Compound 25, N-[4-(2-methyl-cyclohex-1-enyl)-phenyl]-2,6-difluoro-benzamide] |  |
| 17.4 | CCC1=C(c2ccc(NC(=O)c3c(F)cccc3F)cc2)CCCC1 [Compound 29, N-[4-(2-ethyl-cyclohex-1-enyl)-phenyl]-2,6-difluoro-benzamide] |  |
| 300 | CCOC(=O)C1=C(c2ccc(NC(=O)c3c(F)cccc3F)cc2)CCC1 [Compound 30, 2-[4-(2,6-Difluoro-benzoylamino)phenyl]-cyclopent-1-enecarboxylic acid ethyl ester] |  |
| > 1000 | O=C(Nc1ccc(C2=C(CO)CCC2)cc1)c1c(F)cccc1F [Compound 31, 2,6-Difluoro-N-[4-(2-hydroxymethyl-cyclopent-1-enyl)-phenyl]-benzamide] |  |
| > 1000 | O=CC1=C(c2ccc(NC(=O)c3c(F)cccc3F)cc2)CCC1 [Compound 32, 2,6-Difluoro-N-[4-(2-formyl-cyclopent-1-enyl)-phenyl]-benzamide] |  |
| 97.1 | C=CC1=C(c2ccc(NC(=O)c3c(F)cccc3F)cc2)CCC1 [Compound 33, 2,6-Difluoro-N-[4-(2-vinyl-cyclopent-1-enyl)-phenyl]-benzamide] |  |
| 20.5 | O=C(Nc1ccc(C2=C(c3cnco3)CCC2)cc1)c1c(F)cccc1F [Compound 34, 2,6-Difluoro-N-[4-(2-oxazol-5-yl-cyclopent-1-enyl)-phenyl]-benzamide] |  |
| 104 | COC(=O)C1=C(c2ccc(NC(=O)c3c(F)cccc3F)cc2)CCCCC1 [Compound 35, 2,6-Difluoro-N-[4-(2-methoxycarbonyl-cyclohept-1-enyl)-phenyl]-benzamide] |  |
